Data published in patent US20240116985A1, “STAPLED PEPTIDES AND METHODS THEREOF” (priority 2020, published 2024).
Like-named read-outs stand apart in the source and are kept apart here.

Assays:
[1] = target: T1, beta-catenin/TCF4 engagement (Homo sapiens, UniProt P35222); assay: Nano-BRET target engagement assay (B-cat-Halo & TCF4-Luc in HEK293 cells); type: cell-based; conditions: read-out: NanoBRET Abs IC50
T1 construct: expressed in transfected cells; host or cells: HEK293
T1 sequence (P35222 1-781): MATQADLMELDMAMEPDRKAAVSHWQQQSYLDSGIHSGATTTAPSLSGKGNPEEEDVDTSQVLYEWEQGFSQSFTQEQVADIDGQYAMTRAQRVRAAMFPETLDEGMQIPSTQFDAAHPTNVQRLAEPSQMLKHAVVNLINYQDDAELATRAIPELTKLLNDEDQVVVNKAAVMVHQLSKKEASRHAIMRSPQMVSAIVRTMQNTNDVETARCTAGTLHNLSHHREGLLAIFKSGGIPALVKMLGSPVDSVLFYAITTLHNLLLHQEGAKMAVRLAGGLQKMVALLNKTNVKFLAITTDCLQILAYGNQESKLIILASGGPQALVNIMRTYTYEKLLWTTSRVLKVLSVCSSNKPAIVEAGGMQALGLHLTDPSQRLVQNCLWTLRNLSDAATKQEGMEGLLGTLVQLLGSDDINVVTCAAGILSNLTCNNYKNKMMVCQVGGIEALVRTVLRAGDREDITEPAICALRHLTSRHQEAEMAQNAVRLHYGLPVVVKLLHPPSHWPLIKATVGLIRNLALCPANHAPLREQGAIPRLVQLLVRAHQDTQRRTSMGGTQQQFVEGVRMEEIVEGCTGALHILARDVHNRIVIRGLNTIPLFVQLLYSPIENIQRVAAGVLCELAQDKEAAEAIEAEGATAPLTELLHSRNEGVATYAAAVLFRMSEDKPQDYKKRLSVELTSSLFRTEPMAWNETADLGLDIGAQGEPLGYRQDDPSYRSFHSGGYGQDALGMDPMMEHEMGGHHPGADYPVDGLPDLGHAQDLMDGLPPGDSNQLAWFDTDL

[2] = target: T2, full-length beta-Catenin (Uniprot ID P35222) (Homo sapiens, UniProt P35222); assay: Fluorescence polarization IC50 (beta-catenin / 5FAM-TCF4 10-53 competition); type: binding; conditions: fluorescence polarization; read-out: beta-Catenin FP IC50
T2 construct: 10 nM full-length beta-Catenin (Uniprot ID P35222)
T2 sequence (P35222 1-781): T1 sequence (P35222 1-781)

| Structure (SMILES) | IC50 [1] | IC50 [2] | IC50 ([1]; absolute IC50) |
| --- | --- | --- | --- |
| CC(=O)N[C@]1(C)CCCC=CCCCC2(CCCC=CCCCOC(=O)N3CC[C@@](C(=O)N[C@@H](Cc4ccccc4C(F)(F)F)C(=O)N[C@@H](Cc4csc5ccccc45)C(=O)N[C@@H](CCC(N)=O)C(N)=O)(C3)NC(=O)[C@H](CC(C)C)NC(=O)[C@H](Cc3ccccc3)NC(=O)[C@H](C)NC(=O)[C@H](C)NC(=O)[C@H](Cc3cccc(C(=O)O)c3)NC(=O)[C@H](CC(=O)O)NC2=O)NC(=O)[C@H](CC(C)(C)C)NC(=O)[C@H](CC(=O)O)NC1=O (stereo partly drawn) [I-2565, Ac-R5-Asp-Npg-B5-Asp-3COOHF-Ala-Ala-Phe-Leu-PyrS2-2F3MeF-BztA-Gln-NH2] | 21000 nM | 90 nM |  |
| CC(=O)N1CCC[C@]12CC=CCCCC1(CCCC=CCCCOC(=O)N3CC[C@@](C(=O)N[C@@H](Cc4ccsc4)C(=O)N[C@@H](Cc4csc5ccccc45)C(=O)N[C@@H](CCC(N)=O)C(N)=O)(C3)NC(=O)[C@H](CC(N)=O)NC(=O)[C@H](Cc3ccccc3)NC(=O)[C@H](C)NC(=O)[C@H](C)NC(=O)[C@H](Cc3c[nH]c4ccccc34)NC(=O)[C@H](CC(=O)O)NC1=O)NC(=O)[C@H](CC(C)(C)C)NC(=O)[C@H](CC(=O)O)NC2=O (stereo partly drawn) [I-1788, Ac-PL3-Asp-Npg-B5-Asp-Trp-Ala-Ala-Phe-Asn-PyrS2-3Thi-BztA-Gln-NH2] |  | 58 nM | 33900 nM |
| CC(=O)N1CCC[C@]12CC=CCCCC1(CCCC=CCCCOC(=O)N3CC[C@@](C(=O)N[C@@H](Cc4ccccc4Cl)C(=O)N[C@@H](Cc4csc5ccccc45)C(=O)N[C@@H](CCC(N)=O)C(N)=O)(C3)NC(=O)[C@H](Cc3ccccc3)NC(=O)[C@H](Cc3ccccc3)NC(=O)[C@H](C)NC(=O)[C@H](C)NC(=O)[C@H](Cc3ccccc3C(=O)O)NC(=O)[C@H](CC(=O)O)NC1=O)NC(=O)[C@H](CC(C)(C)C)NC(=O)[C@H](CC(=O)O)NC2=O (stereo partly drawn) [I-1657, Ac-PL3-Asp-Npg-B5-Asp-2COOHF-Ala-Ala-Phe-Phe-PyrS2-2C1F-BztA-Gln-NH2] |  | 36 nM | 11000 nM |
| CC(=O)N1CCC[C@]12CC=CCCCC1(CCCC=CCCCOC(=O)N3CC[C@@](C(=O)N[C@@H](Cc4ccsc4)C(=O)N[C@@H](Cc4csc5ccccc45)C(=O)N[C@@H](CCC(N)=O)C(N)=O)(C3)NC(=O)[C@H](CC(N)=O)NC(=O)[C@H](Cc3ccccc3)NC(=O)[C@H](C)NC(=O)[C@H](C)NC(=O)[C@H](CCCNC(=N)N)NC(=O)[C@H](CC(=O)O)NC1=O)NC(=O)[C@H](CC(C)(C)C)NC(=O)[C@H](CC(=O)O)NC2=O (stereo partly drawn) [I-1891, Ac-PL3-Asp-Npg-B5-Asp-Arg-Ala-Ala-Phe-Asn-PyrS2-3Thi-BztA-Gln-NH2] | > 20000 nM | 40 nM |  |
| CC(=O)N1CCC[C@]12CC=CCCCC1(CCCC=CCCCOC(=O)N3CC[C@@](C(=O)N[C@@H](Cc4ccccc4C(F)(F)F)C(=O)N[C@@H](Cc4csc5c(F)cccc45)C(=O)N[C@@H](C)C(N)=O)(C3)NC(=O)[C@H](CC(C)C)NC(=O)[C@H](Cc3ccccc3)NC(=O)[C@H](C)NC(=O)[C@H](CCC(N)=O)NC(=O)[C@H](Cc3cccc(C(=O)O)c3)NC(=O)[C@H](CC(=O)O)NC1=O)NC(=O)[C@H](CC(C)(C)C)NC(=O)[C@H](CC(=O)O)NC2=O (stereo partly drawn) [I-2489, Ac-PL3-Asp-Npg-B5-Asp-3COOHF-Gln-Ala-Phe-Leu-PyrS2-2F3MeF-7FBztA-Ala-NH2] |  | 29 nM | 7400 nM |
| CC(=O)N1CCC[C@]12CCCCCCC1(CCCCCCCOC(=O)N3CC[C@@](C(=O)N[C@@H](Cc4ccsc4)C(=O)N[C@@H](Cc4csc5ccccc45)C(=O)N[C@@H](CCC(N)=O)C(N)=O)(C3)NC(=O)[C@H](CC(N)=O)NC(=O)[C@H](Cc3ccccc3)NC(=O)[C@H](C)NC(=O)[C@H](C)NC(=O)[C@H](CC(=O)O)NC(=O)[C@H](CC(=O)O)NC1=O)NC(=O)[C@H](CC(C)(C)C)NC(=O)[C@H](CC(=O)O)NC2=O (stereo partly drawn) [I-1821, Ac-PL3-Asp-Npg-B5-Asp-Asp-Ala-Ala-Phe-Asn-PyrS1-3Thi-BztA-Gln-NH2] |  | 67 nM | > 20000 nM |
| CC(=O)N1CCC[C@]12CC=CCCCC1(CCCC=CCCCOC(=O)N3CC[C@@](C(=O)N[C@@H](Cc4ccsc4)C(=O)N[C@@H](Cc4csc5ccccc45)C(=O)N[C@@H](C)C(N)=O)(C3)NC(=O)[C@H](CC(C)C)NC(=O)[C@H](Cc3ccccc3)NC(=O)[C@H](C)NC(=O)[C@H](Cc3c[nH]cn3)NC(=O)[C@H](Cc3cccc(C(=O)O)c3)NC(=O)[C@H](CC(=O)O)NC1=O)NC(=O)[C@H](CC(C)(C)C)NC(=O)[C@H](CC(=O)O)NC2=O (stereo partly drawn) [I-1916, Ac-PL3-Asp-Npg-B5-Asp-3COOHF-His-Ala-Phe-Leu-PyrS2-3Thi-BztA-Ala-NH2] | 9200 nM | 8 nM |  |
| CCCC[C@@H]1NC(=O)[C@H](Cc2cccc(C(=O)O)c2)NC(=O)[C@H](CC(=O)O)NC(=O)C2(CCCC=CCCCOC(=O)N3CC[C@@](C(=O)N[C@@H](Cc4ccccc4Cl)C(=O)N[C@@H](Cc4csc5ccccc45)C(=O)N[C@@H](CCC(N)=O)C(N)=O)(C3)NC(=O)[C@H](CC(C)C)NC(=O)[C@H](Cc3ccccc3)NC(=O)CNC1=O)CCCC=CC[C@]1(CCCN1C(C)=O)C(=O)N[C@@H](CC(=O)O)C(=O)N[C@@H](CC(C)(C)C)C(=O)N2 (stereo partly drawn) [I-1688, Ac-PL3-Asp-Npg-B5-Asp-3COOHF-nLeu-Gly-Phe-Leu-PyrS2-2C1F-BztA-Gln-NH2] |  | 59 nM | 21500 nM |
| CC(=O)N1CCC[C@]12CC=CCCCC1(CCCC=CCCCOC(=O)N3CC[C@@](C(=O)N[C@@H](Cc4ccsc4)C(=O)N[C@@H](Cc4csc5ccccc45)C(=O)N[C@H](CCC(N)=O)C(N)=O)(C3)NC(=O)[C@H](Cc3ccccc3)NC(=O)[C@H](Cc3ccccc3)NC(=O)[C@H](C)NC(=O)[C@H](C)NC(=O)[C@H](Cc3cccc(C(=O)O)c3)NC(=O)[C@H](CC(=O)O)NC1=O)NC(=O)[C@H](CC(C)(C)C)NC(=O)[C@H](CC(=O)O)NC2=O (stereo partly drawn) [I-2092, Ac-PL3-Asp-Npg-B5-Asp-3COOHF-Ala-Ala-Phe-Phe-PyrS2-3Thi-BztA-dGln-NH2] | 4400 nM | 15 nM |  |
| CC(=O)N1CCC[C@]12CC=CCCCC1(CCCC=CCCCOC(=O)N3CC[C@@](C(=O)N[C@@H](Cc4ccsc4)C(=O)N[C@@H](Cc4csc5ccccc45)C(=O)N[C@@H](CC(N)=O)C(=O)N[C@@H](C)C(=O)N[C@@H](CC(C)C)C(=O)N[C@@H](C)C(=O)N[C@@H](CC(C)C)C(=O)N[C@@H](C)C(N)=O)(C3)NC(=O)[C@H](CC(C)C)NC(=O)[C@H](Cc3ccccc3)NC(=O)[C@H](C)NC(=O)[C@H](C)NC(=O)[C@H](Cc3cccc(C(=O)O)c3)NC(=O)[C@H](CC(=O)O)NC1=O)NC(=O)[C@H](CC(C)(C)C)NC(=O)[C@H](CC(=O)O)NC2=O (stereo partly drawn) [I-2282, Ac-PL3-Asp-Npg-B5-Asp-3COOHF-Ala-Ala-Phe-Leu-PyrS2-3Thi-BztA-Asn-Ala-Leu-Ala-Leu-Ala-NH2] |  | 155 nM | 3700 nM |
| CC(=O)N1CCC[C@]12CC=CCCCC1(CCCC=CCCCCCC[C@@](C)(C(=O)N[C@@H](Cc3ccccc3)C(=O)N[C@@H](Cc3csc4ccccc34)C(=O)N[C@@H](CCC(N)=O)C(N)=O)NC(=O)[C@H](CCC(N)=O)NC(=O)[C@H](Cc3ccccc3)NC(=O)[C@H](C)NC(=O)[C@H](C)NC(=O)[C@H](CCC(=O)O)NC(=O)[C@H](CC(=O)O)NC1=O)NC(=O)[C@H](CO)NC(=O)[C@H](CC(=O)O)NC2=O (stereo partly drawn) [I-1527, Ac-PL3-Asp-Ser-B5-Asp-Glu-Ala-Ala-Phe-Gln-S8-Phe-BztA-Gln-NH2] |  | 36 nM | 30300 nM |
| CC(=O)N1CCC[C@]12CC=CCCCC1(CCCC=CCCCOC(=O)N3CC[C@@](C(=O)N[C@@H](Cc4cccc(C(N)=O)c4)C(=O)N[C@@H](Cc4csc5ccccc45)C(=O)N[C@@H](CCO)C(N)=O)(C3)NC(=O)[C@H](CC(N)=O)NC(=O)[C@H](Cc3ccccc3)NC(=O)[C@H](C)NC(=O)[C@H](CCCCNC(C)C)NC(=O)[C@H](CCC(N)=O)NC(=O)[C@H](CC(=O)O)NC1=O)NC(=O)[C@H](CC1CCCCC1)NC(=O)[C@H](CC(N)=O)NC2=O (stereo partly drawn) [I-1929, Ac-PL3-Asn-Cha-B5-Asp-Gln-iPrLys-Ala-Phe-Asn-PyrS2-3cbmf-BztA-Hse-NH2] | > 20000 nM | 74 nM |  |
| CC(=O)N1CCC[C@]12CC=CCCCC1(CCCC=CCCCOC(=O)N3CC[C@@](C(=O)N[C@@H](Cc4ccccc4Cl)C(=O)N[C@@H](Cc4csc5ccccc45)C(=O)N[C@@H](CO)C(N)=O)(C3)NC(=O)[C@H](CO)NC(=O)[C@H](Cc3ccccc3)NC(=O)[C@H](C)NC(=O)[C@H](C)NC(=O)[C@H](Cc3cccc(C(=O)O)c3)NC(=O)[C@H](CC(=O)O)NC1=O)NC(=O)[C@H](CC(C)(C)C)NC(=O)[C@H](CC(=O)O)NC2=O (stereo partly drawn) [I-1903, Ac-PL3-Asp-Npg-B5-Asp-3COOHF-Ala-Ala-Phe-Ser-PyrS2-2C1F-BztA-Ser-NH2] | 6400 nM | 14 nM |  |
